Counter-ions that a name gives are not always drawn.
Tests used:
[1] = tested on: RAD51L3, MMS19, SMUG1, PARP1 and MLH1 in OE33R cells; assay: Gene expression of DNA repair proteins (qPCR), OE33R; format: cell-based, human; conditions: 10 μM, 24 hours, reduction of RAD51L3, MMS19, PARP1 and MLH1
Experimental: (§1) O[…] radiosensitive and O[…] radioresistant oesophageal adenocarcinoma cells were used to test the effects of the above compounds on the gene expression of DNA repair proteins. Cells were maintained in RPMI media supplemented with 10% foetal calf serum, penicillin (100 U/ml) and streptomycin (100 μg/ml). Cells were seeded in 6 well plates and left to incubate for 24 hours. Cells were treated 10 μM of the above compounds or fresh media as a control. After 24 hours of treatment, RNA and cDNA was isolated and qPCR performed using primer probes to the following primer probes to RAD51L3, MMS19, SMUG1, PARP1 and MLH1. O[…] radiosensitive and O[…] radioresistant oesophageal adenocarcinoma cells were used to test the effects of compounds 11B HCl, 11B_CC11_HCl and 11B_Z_HCL on the gene expression of DNA repair proteins. Cells were maintained in RPMI media supplemented with 10% foetal calf serum, penicillin (100 U/ml) and streptomycin (100 μg/ml). Cells were seeded in 6 well plates and left to incubate for 24 hours. Cells were treated 10 μM of the above compounds or fresh media as a control. After 24 hours of treatment, RNA and cDNA was isolated and qPCR performed using primer probes to the following primer probes to RAD51L3, MMS19, SMUG1, PARP1 and MLH1.

[2] = tested on: RAD51L3, MMS19, SMUG1, PARP1 and MLH1 in OE33P cells; assay: Gene expression of DNA repair proteins (qPCR), OE33P; format: cell-based, human; conditions: 10 μM, 24 hours, reductions of RAD51L3, MMS19, SMUG1 and PARP1
Experimental: as §1

[3] = tested on: OE33R radio-resistant oesophageal adenocarcinoma cells; assay: Cell number after 24 hours drug treatment (crystal violet absorbance), OE33R; format: cell-based, human; conditions: 10 μM
Experimental: OE33P radio-sensitive and OE33R radio-resistant oesophageal adenocarcinoma cells were used to test the effects of the compounds 11B HCl, […], 11B CC16 HCl, 11B 471 and 11B 268 on cell number. Cells were maintained in RPMI media supplemented with 10% foetal calf serum, penicillin (100 U/ml) and streptomycin (100 gig/ml). A total of 11.000 or 13,000 cells, in 100 μl media, were seeded per well in 24 well plates and left to incubate for 24 hours, with an additional 150 μl media added after 5 hours. The media was replaced with solutions containing 10 μM of 11B HCl, 11B CC11 HCl, 11B CC16 HCl, 11B 471, 11B 268 or fresh media as a control. Each drug had 6 replicates. After 24 hours of treatment, the cells were fixed with 1% glutaraldehyde for 15 minutes and then stained with crystal violet for 30 minutes. The plates were blotted and dried overnight. The cells were resuspended with 1% TritonX-100 and shaken for 15 minutes. The absorbance was read on a spectrophotometer at 590 nm.
OE33P radiosensitive and OE33R radioresistant cells were used to test the effects of the compound 11B_Z_HCl on toxicity. Cells were maintained in RPMI media supplemented with 10% foetal calf serum, penicillin (100 U/ml) and streptomycin (100 μg/ml). A total of 11,000 cells, in 100 μl media, were seeded per well in 24 well plates and left to incubate for 24 hours, with an additional 150 μl media added after 5 hours. The media was replaced with solutions containing 10 μM of 11B_Z_HCl or fresh media as a control. Each treatment had 6 replicates. After 24 hours of treatment, the cells were fixed with 1% glutaraldehyde for 15 minutes and then stained with crystal violet for 30 minutes. The plates were blotted and dried overnight. The cells were resuspended with 1% TritonX-100 and shaken for 15 minutes. The absorbance was read on a spectrophotometer at 590 nm.

[4] = tested on: zebrafish hyaloid vasculature; assay: Quantification of primary hyaloid vasculature branch number in Tg(fli1:EGFP) zebrafish; format: in vivo; conditions: for dose-dependent inhibition of development of hyaloid vessels: decreasing doses 20, 10, 7.5, 5, 2.5, 1 and/or 0.5 μM, HCl salt; for inhibition of developmental angiogenesis of the hyaloid vasculature (number of primary hyaloid vessels): typically 10 μM or 5 μM, from 24 hpf, vs DMSO control
Summary of the method: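 Tg(fli1:EGFP) larvae raised at 28° C on a 14/10 hr light cycle, euthanised and fixed overnight in 4% PFA at 4° C. Dissected lenses imaged by epi-fluorescence; hyaloid vessel patterning compared with DMSO controls and the archetypal pattern.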

[5] = tested on: zebrafish intersegmental vessels; assay: Quantification of intersegmental vessel number in zebrafish; format: in vivo; conditions: for inhibition of developmental angiogenesis of intersegmental vessels (number of intersegmental vessels): 10 μM, from 6 hpf; for dose-dependent inhibition of development of intersegmental vessels: decreasing doses 10, 7.5, 5 and/or 1 μM, HCl salt
Summary of the method: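 Zebrafish larvae were dechorionated by hand, euthanised, and fixed overnight at 4° C. in 4% PFA before being analysed. Following PBS washes, they were placed on depression slides and examined by epi-fluorescence on an Olympus SZX16 fluorescent microscope. Intersegmental vessels were counted, and the mean count was plotted for each drug.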

Row | SMILES | expression of DNA repair genes [1] | expression of DNA repair genes [2] | cell number, measured by % absorbance [3] | dose-dependent inhibition of development of hyaloid vessels [4] | dose-dependent inhibition of development of hyaloid vessels ([4]; listed as 11B-CC11 HCl) | inhibition of developmental angiogenesis of the hyaloid vasculature (number of primary hyaloid vessels) [4] | inhibition of developmental angiogenesis of intersegmental vessels (number of intersegmental vessels) [5] | dose-dependent inhibition of development of intersegmental vessels [5] | dose-dependent inhibition of development of intersegmental vessels ([5]; listed as 11B-CC11 HCl) | cell number, measured by % absorbance ([3]; HCl salt)
1 | Oc1ccccc1/C=C/c1ccc2ccccc2n1 [11B HCl] | Reduction | Reduction | did not significantly reduce cell number |  |  |  |  |  |  | 
2 | C/C(=C\c1ccccc1O)c1ccc2ccccc2n1.Cl [Compound 11B_CC11_HCl, (E)-2-(2-Quinolin-2-yl-propenyl)-phenol HCl salt] | Reduction | Reduction | did not significantly reduce cell number | inhibit developmental angiogenesis of zebrafish hyaloid vasculature in a dose-dependent statistically significant manner | dose-dependent effect | inhibit developmental angiogenesis of the zebrafish hyaloid vasculature in a statistically significant manner | inhibit developmental angiogenesis of zebrafish intersegmental vessels in a statistically significant manner | inhibit developmental angiogenesis of zebrafish intersegmental vessels in a dose-dependent statistically significant manner | dose-dependent effect | 
3 | Cl.Oc1ccccc1/C=C\c1ccc2ccccc2n1 [Compound 11B_Z_HCl, (Z)-2-(2-(Quinolin-2-yl)vinyl) phenol HCl salt] | Reduction | Reduction |  |  |  | inhibit developmental angiogenesis of the zebrafish hyaloid vasculature in a statistically significant manner | inhibit developmental angiogenesis of zebrafish intersegmental vessels in a statistically significant manner |  |  | did not significantly reduce cell number

Source: patent publication US9815788B2, “Anti-angiogenic compounds” (University College Dublin National University of Ireland, …, priority 2012, dated 2017)
